Assay in all cases: relative viability (nuclei count vs DMSO), 5 days (fraction); higher = more cells survive
Compound in the experiment “IPA-3 + Navitoclax”: C1=CC=C2C(=C1)C=CC(=C2SSC3=C(C=CC4=CC=CC=C43)O)O [IPA-3] + CC1(C)CCC(c2ccc(Cl)cc2)=C(CN2CCN(c3ccc(C(=O)NS(=O)(=O)c4ccc(N[C@H](CCN5CCOCC5)CSc5ccccc5)c(S(=O)(=O)C(F)(F)F)c4)cc3)CC2)C1 [Navitoclax] (partner 0.5 µM)
In outline:
(§1)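 Medians of duplicate plates are given as relative viability. That measure is the nuclei count in treated wells divided by the count in vehicle wells. Counts were taken on 4× images of lung cancer cell lines in 1536-well plates, 5 days after pin-tool dosing the day after seeding with one drug alone or a fixed anchor-drug dose plus five library-drug doses (not always all listed) in √10 steps.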

Compound in the experiment “Doramapimod + Alpelisib”: Cc1ccc(-n2nc(C(C)(C)C)cc2NC(=O)Nc2ccc(OCCN3CCOCC3)c3ccccc23)cc1 [Doramapimod] + Cc1nc(NC(=O)N2CCC[C@H]2C(N)=O)sc1-c1ccnc(C(C)(C)C(F)(F)F)c1 [Alpelisib] (partner 2 µM)
In short, it runs like this:
as §1

Compound in the experiment “Doramapimod + Pemetrexed”: Cc1ccc(-n2nc(C(C)(C)C)cc2NC(=O)Nc2ccc(OCCN3CCOCC3)c3ccccc23)cc1 [Doramapimod] + Nc1nc2[nH]cc(CCc3ccc(C(=O)N[C@@H](CCC(=O)O)C(=O)O)cc3)c2c(=O)[nH]1 [Pemetrexed] (partner 0.2 µM)
In outline: as §1

Compound in the experiment “RAF265 + Tozasertib”: Cn1c(Nc2ccc(C(F)(F)F)cc2)nc2cc(Oc3ccnc(-c4ncc(C(F)(F)F)[nH]4)c3)ccc21 [RAF265] + Cc1cc(Nc2cc(N3CCN(C)CC3)nc(Sc3ccc(NC(=O)C4CC4)cc3)n2)n[nH]1 [Tozasertib] (partner 0.1 µM)
In short, it runs like this: as §1

We go through 1 cell line from the supplement of paper PMC10307832.

With UMC-11, the relative viability in the experiment with IPA-3 + Navitoclax (first compound 0.2 µM) is 0.319; with IPA-3 + Navitoclax (first compound 0.6325 µM), 0.306; in the experiment with IPA-3 + Navitoclax (first compound 2 µM) it was 0.321; in the experiment with IPA-3 + Navitoclax (first compound 6.325 µM) it was 0.367; with IPA-3 + Navitoclax (first compound 20 µM), 0.462; in the experiment with Doramapimod + Alpelisib (first compound 0.02 µM) it was 1. The relative viability worked out at 1.03 with Doramapimod + Alpelisib (first compound 0.06325 µM); 0.891 with Doramapimod + Alpelisib (first compound 0.2 µM); 0.989 with Doramapimod + Alpelisib (first compound 0.6325 µM); 0.876 with Doramapimod + Alpelisib (first compound 2 µM); 0.711 with Doramapimod + Pemetrexed (first compound 0.02 µM); 0.739 in the experiment with Doramapimod + Pemetrexed (first compound 0.06325 µM). Moreover, the relative viability with Doramapimod + Pemetrexed (first compound 0.2 µM) was 0.75; in the experiment with Doramapimod + Pemetrexed (first compound 0.6325 µM), 0.708; in the experiment with Doramapimod + Pemetrexed (first compound 2 µM), 0.743; with RAF265 + Tozasertib (first compound 0.01 µM), 0.191; with RAF265 + Tozasertib (first compound 0.03162 µM) it was 0.212; with RAF265 + Tozasertib (first compound 0.1 µM), 0.201. In addition, the relative viability in the experiment with RAF265 + Tozasertib (first compound 0.3162 µM) was 0.19; with RAF265 + Tozasertib (first compound 1 µM), 0.174.
